Results published in paper PMC8957246, “Synthesis and diverse biological activity profile of triethylammonium isatin-3-hydrazones” (ADMET & DMPK, 2022).
Converted amounts (≈) assume the structure as drawn. Structures can show the parent of a compound that is named as a salt. Marks after values point to notes of the source that are not given here.

What was measured:
[1] = test system: activated partial thromboplastin time (intrinsic coagulation pathway); assay: Anticoagulant activity, clotting test APTT; set-up: species or system human; conditions: concentration 5×10^–4 g/mL; median (25-75 percentiles)
Method: (§1) The in vitro experiments were performed using the blood of healthy male donors aged 18-24 years (total 54 donors). The study was approved by the Ethics Committee of Federal State Budgetary Educational Institution of Higher Education at the Bashkir State Medical University of the Ministry of Health of Russian Federation (No.2 dated 17.10.2012). Informed consent was obtained from all participants before blood sampling. The blood was collected from the cubital vein using the system of vacuum blood collection BD Vacutainer® (Becton, Dickinson and Company, USA). A 3.8 % sodium citrate solution in a 9:1 ratio was used as a venous blood stabiliser. The study of the effect on platelet aggregation was performed using the Born method using the aggregometer «AT-02» (SPC Medtech, Russia). The assessment of antiplatelet activity of the studied compounds and reference preparations was started with the final concentration of 2×10^–3 mol/L. Adenosine diphosphate (ADP; 20 μg/mL) and collagen (5 mg/mL) manufactured by Tehnologia-Standart Company, Russia, were used as inducers of aggregation. The study on the anticoagulant activity was performed by standard recognised clotting tests using the optical two-channel automatic analyser of blood coagulation Solar CGL 2110 (CJSC SOLAR, Belarus). The following parameters were studied: activated partial thromboplastin time (APTT), prothrombin time (PT) and fibrinogen concentrations according to the Clauss method. The determination of anticoagulant activity of the studied compounds and reference preparation was performed in a concentration of 5×10^–4 g/mL using the reagents manufactured by Tehnologia-Standart Company (Barnaul, Russia). The results of the study were processed using the statistical package Statistica 10.0 (StatSoft Inc, USA). The Shapiro–Wilk’s test was used to check the normality of actual data distribution. The form of distribution of the data obtained differed from the normal one; therefore, non-parametric methods were used for further analysis. The data were presented as medians and 25 and 75 percentiles. Analysis of variance was conducted using Kruskal–Wallis test. A p value of 0.05 was considered statistically significant.

[2] = test system: Xanthomonas campestris B-610; assay: Bactericidal activity, agar diffusion, X. campestris; assay type: cell-based
Text: (§2) Plant pathogenic bacterial strains Micrococcus luteus B-109, Pectobacterium atrosepticum 1043, Pectobacterium carotovorum subsp. carotovorum MI, Pseudomonas fluorescens EL-2.1, and Xanthomonas campestris B-610 and fungal strain Fusarium oxysporum IBPPM 543 were obtained from the specialized scientific culture collection of IBPPM RAS (WFCC no. 975, WDCM no. 1021) (CM IBPPM). Pathogenic fungus Phytophthora cactorum VKM F-985 provided by the All-Russian Collection of Microorganisms (VKM) and deposited at A.E. Favorsky Irkutsk Institute of Chemistry, SB RAS, was also used as test organism. Bacteria M. luteus, P. carotovorum subsp. carotovorum, P. atrosepticum, and Ps. fluorescens were grown in meat-peptone medium (BP), and X. campestris was grown in the medium with glucose, yeast extract, and calcium carbonate (GYCa). Solid media contained Bacto agar (18 g/L); pH was adjusted to 7.2-7.4. All bacterial cultures were grown at 28°C. The mycelial cultures of F. oxysporum and P. cactorum were grown on a glucose-peptone-yeast (GPY) nutrient medium at 27 °C. For inoculum preparation, both fungal strains were initially grown on the agar GPY in Petri dishes and then transferred into the seed medium by punching out 5 mm of the agar plate culture with a self-designed cutter.
(§3) Antibacterial and antifungal activities of the compounds were explored using the agar diffusion method and the technique of a phytopathogen radial growth inhibition. Method of diffusion in agar (measuring the diameter of growth inhibition zones) was used for determining the bactericidal activity. The 6-mm wells were made in ager medium (GYCa for Xanthomonas campestris or BP for other bacteria). Bacterial suspensions were distributed over the agar surface, and the tested compound's solution (150 μl) was added to each well. The width of growth inhibition zones around the wells was determined after incubation for 36-40 h.
(§4) The solutions of tested compounds were prepared with a concentration of 2 mmol/l (stock solution). For comparison, test compounds were also commonly applied disinfecting agents and antibiotics.

[3] = test system: Pectobacterium atrosepticum 1043; assay: Bactericidal activity, agar diffusion, P. atrosepticum; assay type: cell-based
Text: as §2, §3, §4

[4] = test system: Pseudomonas fluorescens EL-2.1; assay: Bactericidal activity, agar diffusion, Ps. fluorescens; assay type: cell-based
Text: as §2, §3, §4

[5] = test system: Pectobacterium carotovorum subsp. carotovorum MI; assay: Bactericidal activity, agar diffusion, P. carotovorum; assay type: cell-based
Text: as §2, §3, §4

Micrococcus luteus B-109 = assay: Bactericidal activity, agar diffusion, M. luteus; assay type: cell-based
Text: as §2, §3, §4

[6] = test system: Phytophthora cactorum VKM F-985; assay: Fungicidal activity, radial growth inhibition, P. cactorum; assay type: cell-based; conditions: for Inhibition value, I (%): C 10 μg/mL
Text: as §2
(§5) For the fungicidal activity analysis, radial growth (colony diameters) of the fungi on a solid medium in the absence and in the presence of the compounds 3a,c-g solutions at various concentrations were compared. The method consisted of the following: sterile, melted and then cooled to about 60°C GPY agar medium (20.0 ml) was mixed with the precisely measured volumes of the solutions under question, and poured into a sterile Petri dish (90 mm i.d.). After solidification of GPY agar, the media were inoculated by the fungus using 10-day-old cultures of F. oxysporum or P. cactorum. The inoculation was done by transferring a 5-mm (i.d.) GPY-agar block covered with mycelium to the center of the Petri dish followed by incubation in a thermostat at 27°C. The fungicidal effect was scored by the size of mycelium colony on a Petri dish compared to the control without fungicidal admixtures to GPY agar. Each treatment was performed in at least four replicates in two independent experiments. The observation period ended when the control Petri dish was filled with mycelium (usually after 12 days). The inhibition of the phytopathogen colony growth by the compounds 3a,c-g or fludioxonil solutions was calculated as a percentage by which the mycelium radial propagation was decreased compared to the unaffected control, the latter was taken as 100 % of growth (or zero percent of inhibition). The EC50 value was calculated as the compound concentration at which the radial growth of the fungus colony was decreased by 50 % relative to the non-fungicidal control, according to the formula EC50 = 50C/I based on the approach developed e.g., in [34, 35].
as §4

[7] = test system: Fusarium oxysporum IBPPM 543; assay: Fungicidal activity, radial growth inhibition, F. oxysporum; assay type: cell-based; conditions: for Inhibition value, I (%): C 10 μg/mL
Text: as §2, §5, §4

[8] = test system: Enterococcus faecalis ATCC 29212; assay: Antimicrobial activity, serial dilution (MIC/MBC), Ef; assay type: cell-based; conditions: ATCC29212
Method: (§6) The antimicrobial activity of the test compounds was determined by the serial dilution technique in Muller Hinton Broth 2 and in Sabouradu broth for fungi. The cultures used for testing included Gram-positive bacteria: Staphylococcus aureus ATCC 6538P FDA 209P, Bacillus cereus ATCC 10702 NCTC 8035, Enterococcus faecalis ATCC 29212; Gram-negative bacteria: Escherichia coli ATCC 25922, Pseudomonas aeruginosa ATCC 9027, and fungi: Trichophyton mentagrophytes var. gypseum 1773, and Candida albicans ATCC 10231; methicillin-resistant strains of S. aureus (MRSA) was obtained from hospital patients with chronic tonsillitis in the Republican Clinical Hospital (Kazan, Russia). The bacterial load was 3.0 × 10^5 cfu/ml. The fungi load was 2.0 × 10^3 cfu/ml. The results were recorded every 24 h for 5-7 days. Cultures were incubated at 37 °C. The experiment was repeated three times. […] The minimum inhibitory concentration (MIC) was defined as the minimum concentration of a compound that inhibits the growth of the corresponding test microorganism. The growth of bacteria, as well as the absence of the growth due to the bacteriostatic action of compounds, were recorded.
(§7) Synthesized compounds were further evaluated for antimicrobial activity against test microorganisms: Staphylococcus aureus ATCC 209p (Sa), Bacillus cereus ATCC 8035 (Bc), Escherichia coli CDC F-50 (Ec), Enterococcus faecalis (Ef), Pseudomonas aeruginosa ATCC 9027, Aspergillus niger BKMF-1119, Trichophyton mentagrophytes var. gypseum 1773, and Candida albicans 855-653 including methicillin-resistant strains of S. aureus (MRSA 1 and MRSA 2). The minimum inhibitory (MIC) and minimum bactericidal (MBC) concentrations of ammonium salts were determined against these pathogens (Table 1). Due to the lack of activity of compounds 3a-g against Gram-negative bacterial strains and some fungi, the corresponding data are not shown.

[9] = test system: methicillin-resistant strains of S. aureus (MRSA-1); assay: Antimicrobial activity, serial dilution (MIC/MBC), MRSA-1; assay type: cell-based; conditions: Staphylococcus aureus
Method: as §6, §7

[10] = test system: methicillin-resistant strains of S. aureus (MRSA-2); assay: Antimicrobial activity, serial dilution (MIC/MBC), MRSA-2; assay type: cell-based; conditions: Staphylococcus aureus
Method: as §6, §7

[11] = test system: Bacillus cereus ATCC 10702 NCTC 8035; assay: Antimicrobial activity, serial dilution (MIC/MBC), Bc; assay type: cell-based; conditions: Bacillus cereus
Method: as §6, §7

[12] = test system: Staphylococcus aureus ATCC 6538P FDA 209P; assay: Antimicrobial activity, serial dilution (MIC/MBC), Sa; assay type: cell-based; conditions: Staphylococcus aureus
Method: as §6, §7

[13] = test system: platelets (ADP-induced aggregation); assay: Platelet aggregation (Born method), ADP-induced; assay type: cell-based; conditions: Homo sapiens, ADP 20 μg/mL, final concentration 2×10^–3 mol/L, median (25-75 percentiles), read-out: Platelets aggregation, % of control, ADP
Method: as §1

[14] = test system: platelets (collagen-induced aggregation); assay: Platelet aggregation (Born method), collagen-induced; assay type: cell-based; conditions: Homo sapiens, collagen 5 mg/mL, final concentration 2×10^–3 mol/L, median (25-75 percentiles), read-out: Platelets aggregation, % of control, Collagen
Method: as §1

CC[N+](CC)(CC)CC(=O)N/N=C1\C(=O)N(Cc2cc(C(C)(C)C)c(O)c(C(C)(C)C)c2)c2ccccc21 (as salt: bromide) [Compound 3a, 2-(2-(1-(3,5-Di-tert-butyl-4-hydroxybenzyl)-2-oxoindolin-3-ylidene)hydrazinyl)-N,N,N-triethyl-2-oxoethanammonium bromide]
melting point: 212 °C

Heparin sodium [reference compound]
APTT, % of control [1]: +20.3 (19.7-21.4) ^** % of control

CC[N+](CC)(CC)CC(=O)N/N=C1\C(=O)N(Cc2cc(C(C)(C)C)c(O)c(C(C)(C)C)c2)c2ccc([N+](=O)[O-])cc21 (as salt: bromide) [Compound 3f, 2-(2-(1-(3,5-Di-tert-butyl-4-hydroxybenzyl)-5-nitro-2-oxoindolin-3-ylidene)hydrazinyl)-N,N,N-triethyl-2-oxoethanammonium bromide]
melting point: 176 °C

N=C(NCCCCCCNC(=N)NC(=N)Nc1ccc(Cl)cc1)NC(=N)Nc1ccc(Cl)cc1 [Chlorohexidin, reference compound]
width of the inhibition zone ([2]; 500 μg/mL): 5 mm
width of the inhibition zone ([3]; 500 μg/mL): 4 mm
width of the inhibition zone ([4]; 500 μg/mL): 4 mm
width of the inhibition zone ([5]; 500 μg/mL): 5 mm
width of the inhibition zone (Micrococcus luteus B-109; 500 μg/mL): 5 mm

N#Cc1c[nH]cc1-c1cccc2c1OC(F)(F)O2 [Fludioxonil, reference compound]
Inhibition value, I (%) ([6]; age of the fungus 3 days): 46%
Inhibition value, I (%) ([6]; age of the fungus 5 days): 38%
Inhibition value, I (%) ([6]; age of the fungus 7 days): 18%
Inhibition value, I (%) ([6]; age of the fungus 9 days): 12%
Inhibition value, I (%) ([6]; age of the fungus 12 days): 9%
EC50 ([6]; Phytophthora cactorum, 168 h, read-out: EC50, μg/mL at day 7): 27.8 µg/mL (≈ 112 µM)
Inhibition value, I (%) ([7]; age of the fungus 3 days): 38%
Inhibition value, I (%) ([7]; age of the fungus 5 days): 23%
Inhibition value, I (%) ([7]; age of the fungus 7 days): 6%
Inhibition value, I (%) ([7]; age of the fungus 9 days): 4%
EC50 ([7]; Fusarium oxysporum, IBPPM543, 168 h, read-out: EC50, μg/mL at day 7): 83.3 µg/mL (≈ 336 µM)

[Na+].[O-]Cl [sodium hypochlorite, reference compound]
width of the inhibition zone ([2]; 1000 μg/mL): 4 mm
width of the inhibition zone ([3]; 1000 μg/mL): 4 mm
width of the inhibition zone ([4]; 1000 μg/mL): 4 mm
width of the inhibition zone ([5]; 1000 μg/mL): 3 mm
width of the inhibition zone (Micrococcus luteus B-109; 1000 μg/mL): 2.5 mm

CCn1cc(C(=O)O)c(=O)c2cc(F)c(N3CCNCC3)cc21 [Norfloxacin, reference compound]
zone of inhibition at 500 µg/mL ([2]; Xanthomonas campestris, B610, read-out: width of the inhibition zone): 7 mm
MBC [8]: 7.5 ± 0.6 µM (≈ 2.4 µg/mL)
MIC [8]: 7.5 ± 0.5 µM (≈ 2.4 µg/mL)
MIC [9]: 391 ± 30 µM (≈ 125 µg/mL)
zone of inhibition at 500 µg/mL ([3]; Pectobacterium atrosepticum, 1043, 500 μg/mL, read-out: width of the inhibition zone): 7 mm
MIC [10]: 30 ± 2.6 µM (≈ 9.58 µg/mL)
zone of inhibition at 500 µg/mL ([4]; Pseudomonas fluorescens, EL2.1, 500 μg/mL, read-out: width of the inhibition zone): 8 mm
zone of inhibition at 500 µg/mL ([5]; Pectobacterium carotovorum, 500 μg/mL, read-out: width of the inhibition zone): 8 mm
MBC [11]: 24.4 ± 2.1 µM (≈ 7.79 µg/mL)
MIC ([11]; read-out: MIC): 24.4 ± 2.1 µM (≈ 7.79 µg/mL)
MIC [12]: 7.5 ± 0.5 µM (≈ 2.4 µg/mL)
MBC ([12]; read-out: MBC (converted)): 7.5 ± 0.6 µM (≈ 2.4 µg/mL)
zone of inhibition at 500 µg/mL (Micrococcus luteus B-109; Micrococcus luteus, B109, 500 μg/mL, read-out: width of the inhibition zone): 7 mm

CC(=O)Oc1ccccc1C(=O)O [Acetylsalicylic acid, reference compound]
inhibition at 2000 µM [13]: 13.7%
inhibition at 2000 µM [14]: 14.7%
